Measurements from paper PMC3293077, “Pharmacokinetics of high-dose oral thiamine hydrochloride in healthy subjects” (BMC Clinical Pharmacology, 2012).
Where a name gives a salt, the structure may show the parent alone. Read-outs that look alike come from different tables or passages of the source.

Tests used:
[1] = single oral doses 100, 500, 1500 mg, healthy subjects; study not designed to detect adverse events
From the text: Subjects participated in a randomized, double-blind, single-dose, 4-way crossover study with a minimum of 1 week elapsing between trials.

[2] = cited from earlier work
[3] = mean ± SD; for AUC0-10 hr: baseline-corrected
Experimental: Subjects participated in a randomized, double-blind, single-dose, 4-way crossover study with a minimum of 1 week elapsing between trials. The 4 treatment groups were:
Subjects fasted overnight except for water. […] After 1 hour they were administered the study medication. Additional blood specimens were obtained immediately prior to the study medication and at 0.5, 1, 1.5, 2, 3, 4, 5, 6, 8, and 10 hours after taking the study medication. Subjects received a standardized lunch after the 6-hour blood draw. All blood specimens were drawn in duplicate (for plasma and whole blood assays) in 3 mL lavender-top vacutainers® containing K2EDTA. They were immediately placed in an ice bath and protected from the light. One vacutainer® of each pair was centrifuged at 3000 RPM for 20 min at 4°C to separate the plasma. The plasma sample and whole blood sample were then frozen at -70°C.
Thiamine tablets each containing 100 mg of thiamine hydrochloride were used (Amneal Pharmaceuticals). These were placed intact into opaque capsules. Identical capsules containing sucrose tablets were used as placebo such that the same number of capsules were used for each trial.
Quest Diagnostics analyzed all specimens for total thiamine using HPLC [4]. At Quest Diagnostics, plasma was deproteinized and then incubated with acid phosphatase to convert thiamine phosphate esters to free thiamine. The free thiamine was then oxidized to thiochrome by the addition of alkaline potassium ferricyanide. Depending on the age of the column and the temperature of the room, thiochrome retention time varied from 2.5 to 3.0 min. The mixture was injected to a Supelco (Bellefonte, PA, USA) high-performance liquid chromatographic column (7.5 cm^3 4.6 mm, particle size […]) connected to a high-performance liquid chromatographic system using a Hitachi (Pleasant, CA, USA) pump, autosampler, and fluorescent detector (excitation wavelength 365 nm, emission wavelength 440 nm). The mobile phase was 75 mmol/L of potassium phosphate at pH 7.5 with 25% methanol. The flow rate was set at 1.0 mL/min. Through this process, the thiochrome was then separated from other interfering substances and then measured fluorometrically. The amount of total thiamine in an unknown sample is proportional to the amount of thiochrome formed. The limit of quantification is 7 nmol/L. The assay range is 7 to 450 nmol/L. Samples with values above this range were diluted. The coefficient of variation for both the plasma and whole blood thiamine assays was calculated from the data collected in this study.
The thiamine levels were corrected by subtracting the baseline value. The baseline value was calculated as the average of the -1-hour and 0-hour values. Net systemic exposure to thiamine in each subject in each trial was quantitated using the area under the whole blood or plasma concentration curve from time zero through 10 hours after dosage (AUC0-10 hr). This was calculated using the cubic splines method. The overall effect of treatment condition (thiamine dose) on AUC0-10 hr in blood and plasma was tested using analysis of variance (ANOVA) for repeated measures. This was followed by the Student-Newman-Keuls procedure, nonparametric form, for evaluating all pairwise comparisons of the mean AUC0-10 hr values for the dosage groups. The peak thiamine concentration (Cmax) and the time to peak thiamine concentration (Tmax) were also calculated. Finally, half-life (t1\2) values were calculated where the terminal phase appeared log-linear.

[4] = plasma, 100 mg oral single dose
[5] = plasma, 500 mg oral single dose
[6] = plasma, 1500 mg oral single dose
[7] = whole blood, 100 mg oral single dose
[8] = whole blood, 500 mg oral single dose
[9] = whole blood, 1500 mg oral single dose

Cc1ncc(C[n+]2csc(CCO)c2C)c(N)n1 [thiamine hydrochloride]
side effects [1]: no side effects were reported
adverse effects ([2]; 1000 mg oral three times a day for 2 to 12 months, Alzheimer's disease): without any reports of adverse effects
side effects ([2]; titrated up to 8000 mg per day over 1 year, in 2 subjects at 7000 and 7500 mg per day): nausea and indigestion
AUC0-10 hr [3, 4]: 0.177 ± 0.062 µM·h
Cmax [3, 4]: 39 ± 13 nM
AUC0-10 hr [3, 5]: 0.612 ± 0.257 µM·h
Cmax [3, 5]: 113 ± 42 nM
AUC0-10 hr [3, 6]: 2.059 ± 1.415 µM·h
Cmax [3, 6]: 397 ± 250 nM
AUC0-10 hr [3, 7]: 0.214 ± 0.069 µM·h
Cmax [3, 7]: 40 ± 11 nM
AUC0-10 hr [3, 8]: 0.623 ± 0.178 µM·h
Cmax [3, 8]: 95 ± 27 nM
AUC0-10 hr [3, 9]: 2.046 ± 1.222 µM·h
Cmax [3, 9]: 385 ± 188 nM
